Data: patent US20140309109A1, “N-Thio-anthranilamide compounds and their use as pesticides” (BASF SE, priority 2011, published 2014)

What was measured:
Type in all cases: in vivo
[1] = tested on: Cowpea Aphid (Aphis craccivora); assay: Cowpea aphid spray test on potted cowpea plants; conditions: assessed after 72 hours, sprayed cowpea plants, read-out: mortality in comparison with untreated controls
Procedure: B.1 Cowpea Aphid (Aphis craccivora)
The active compound is dissolved at the desired concentration in a mixture of 1:1 (vol:vol) distilled water:acetone. Surfactant (Alkamuls® EL 620) is added at a rate of 0.1% (vol/vol). The test solution is prepared at the day of use.
Potted cowpea plants were colonized with approximately 50-100 aphids of various stages by manually transferring a leaf tissue cut from infested plant 24 hours before application. Plants were sprayed after the pest population has been recorded. Treated plants are maintained on light carts at about 28° C. Percent mortality was assessed after 72 hours

[2] = tested on: Diamond Back Moth (Plutella xylostella); assay: Diamond back moth cabbage leaf dip test; conditions: foliar, 72 hours after treatment, 3rd instar larvae on dipped cabbage leaves, read-out: mortality in comparison with untreated controls
Procedure: B.2 Diamond Back Moth (Plutella xylostella)
The active compound is dissolved at the desired concentration in a mixture of 1:1 (vol:vol) distilled water:aceteone. Surfactant (Alkamuls® EL 620) is added at a rate of 0.1% (vol/vol).The test solution is prepared at the day of use.
Leaves of cabbage were dipped in test solution and air-dried. Treated leaves were placed in petri dish eslined with moist filter paper and inoculated with ten 3rd instar larvae. Mortality was recorded 72 hours after treatment. Feeding damages were also recorded using a scale of 0-100%.

[3] = tested on: Orchid Thrips (Dichromothrips corbetti); assay: Orchid thrips floral-immersion test; conditions: 72 hours after treatment, adult thrips on dipped orchid flowers, read-out: mortality in comparison with untreated controls
Procedure: B.3 Orchid Thrips (Dichromothrips corbetti)
Dichromothrips corbetti adults used for bioassay were obtained from a colony maintained continuously under laboratory conditions. For testing purposes, the test compound is diluted in a 1:1 mixture of acetone:water (vol:vol), plus 0.01% vol/vol Alkamuls® EL 620 surfactant.
Thrips potency of each compound was evaluated by using a floral-immersion technique. Plastic petri dishes were used as test arenas. All petals of individual, intact orchid flowers were dipped into treatment solution and allowed to dry. Treated flowers were placed into individual petri dishes along with about 20 adult thrips. The petri dishes were then covered with lids. All test arenas were held under continuous light and a temperature of about 28° C. for duration of the assay. After 3 days, the numbers of live thrips were counted on each flower, and along inner walls of each petri dish. The percent mortality was recorded 72 hours after treatment.

[4] = tested on: Southern Armyworm (Spodoptera eridania); assay: Southern armyworm lima bean foliar spray test; conditions: 96 h, 4 days after treatment, larvae on sprayed lima bean plants, read-out: mortality in comparison with untreated controls
Procedure: B.5 Southern Armyworm (Spodoptera eridania)
(§1) The active compounds were formulated in cyclohexanone as a 10,000 ppm solution supplied in tubes. The tubes were inserted into an automated electrostatic sprayer equipped with an atomizing nozzle and they served as stock solutions for which lower dilutions were made in 50% acetone:50% water (v/v). A nonionic surfactant (Kinetic®) was included in the solution at a volume of 0.01% (v/v).
(§2) Lima bean plants (variety Sieva) were grown 2 plants to a pot and selected for treatment at the 1st true leaf stage. Test solutions were sprayed onto the foliage by an automated electrostatic plant sprayer equipped with an atomizing spray nozzle. The plants were dried in the sprayer fume hood and then removed from the sprayer. Each pot was placed into perforated plastic bags with a zip closure. About 10 to 11 armyworm larvae were placed into the bag and the bags zipped closed. Test plants were maintained in a growth room at about 25° C. and about 20-40% relative humidity for 4 days, avoiding direct exposure to fluorescent light (24 hour photoperiod) to prevent trapping of heat inside the bags. Mortality and reduced feeding were assessed 4 days after treatment, compared to untreated control plants.

[5] = tested on: Vetch Aphid (Megoura viciae); assay: Vetch aphid broad bean leaf disk microtiter test; conditions: foliar, 120 h, 5 days, adult aphids on sprayed broad bean leaf disks, read-out: mortality in comparison with untreated controls
Procedure: B.6 Vetch Aphid (Megoura viciae)
For evaluating control of vetch aphid (Megoura viciae) through contact or systemic means the test unit consisted of 24-well-microtiter plates containing broad bean leaf disks.
The compounds were formulated using a solution containing 75% v/v water and 25% v/v DMSO. Different concentrations of formulated compounds were sprayed onto the leaf disks at 2.5 μl, using a custom built micro atomizer, at two replications.
After application, the leaf disks were air-dried and 5-8 adult aphids placed on the leaf disks inside the microtiter plate wells. The aphids were then allowed to suck on the treated leaf disks and incubated at about 23±1° C. and about 50±5% relative humidity for 5 days. Aphid mortality and fecundity was then visually assessed.

[6] = tested on: Tobacco Budworm (Heliothis virescens); assay: Tobacco budworm I (B.7a) cotton plant spray test; conditions: 96 h, 4 days after treatment, larvae on sprayed cotton plants (B.7a), read-out: mortality in comparison with untreated controls
Procedure: B.7a Tobacco Budworm (Heliothis virescens) I
as §1
as §2, with “Cotton” for “Lima bean”, “plants” for “plants (variety Sieva)”, “cotyledon” for “1st true leaf”, “budworm” for “armyworm”

[7] = tested on: Tobacco Budworm (Heliothis virescens); assay: Tobacco budworm I (B.7b) cotton plant spray test; conditions: 96 h, 4 days after treatment, larvae on sprayed cotton plants (B.7b), read-out: mortality in comparison with untreated controls
Procedure: B.7b Tobacco Budworm (Heliothis virescens) I
as §1
as §2, with “Cotton” for “Lima bean”, “plants” for “plants (variety Sieva)”, “cotyledon” for “1st true leaf”, “budworm” for “armyworm”

[8] = tested on: Boll Weevil (Anthonomus grandis); assay: Boll weevil insect diet microtiter test; conditions: 120 h, 5 days, eggs on sprayed insect diet, read-out: mortality (egg and larval) in comparison with untreated controls
Procedure: B.8 Boll Weevil (Anthonomus grandis)
For evaluating control of boll weevil (Anthonomus grandis) the test unit consisted of 24-well-microtiter plates containing an insect diet and 20-30 A. grandis eggs.
The compounds were formulated using a solution containing 75% v/v water and 25% v/v DMSO. Different concentrations of formulated compounds were sprayed onto the insect diet at 20 μl, using a custom built micro atomizer, at two replications.
After application, microtiter plates were incubated at about 23±1° C. and about 50±5% relative humidity for 5 days. Egg and larval mortality was then visually assessed.

[9] = tested on: Colorado Potato Beetle (Leptinotarsa decemlineata); assay: Colorado potato beetle eggplant foliage spray test; conditions: foliar, 96 h, 4 days after treatment, larvae on sprayed eggplant foliage, read-out: mortality in comparison with untreated controls
Procedure: B.9 Colorado Potato Beetle (Leptinotarsa decemlineata)
as §1
Eggplants were grown 2 plants to a pot and were selected for treatment at the 1st true leaf stage. Test solutions were sprayed onto the foliage by an automated electrostatic plant sprayer equipped with an atomizing spray nozzle. The plants were dried in the sprayer fume hood and then removed from the sprayer. The treated foliage was then cut and removed from the pot and placed in a Petri dish lined with moistened filter pa-per. Five beetle larvae were introduced into each Petri dish and the dish was covered by a Petri dish lid. Petri dishes were maintained in a growth room at about 25° C. and about 20-40% relative humidity for 4 days, avoiding direct exposure to fluorescent light (24 hour photoperiod) to prevent trapping of heat inside the dishes. Mortality and reduced feeding were assessed 4 days after treatment, compared to untreated control plants.

CCS(CC1CC1)=NC(=O)c1cc(Cl)cc(C)c1NC(=O)c1cc(C(F)(F)F)nn1-c1ncccc1Cl (stereo not drawn) [Compound 1, 2-(3-chloro-2-pyridyl)-N-[2-methyl-4-chloro-6-[(cyclopropylmethyl-ethyl-λ^4-sulfanylidene)carbamoyl]phenyl]-5-(trifluoromethyl)pyrazole-3-carboxamide]
≥ 75%: mortality at 300 ppm [1] | mortality at 300 ppm [2] | mortality at 300 ppm [3] | mortality at 1 ppm [4] | mortality at 2500 ppm [5] | mortality at 2500 ppm [6] | mortality at 10 ppm [7] | mortality at 2500 ppm [8] | mortality at 10 ppm [9]
